According to ChEMBL document CHEMBL3507680, “University of Dundee, Gates Library screen for HepG2 cell viability”:

Assay: Human HepG2 cell viability assay in 384 well format
Type: toxicity, cell-based
Parameters: dose 125 nL, time 70.5 hour; cytotoxicity at 70.5 h: concentration not given beside the values
Conditions: HepG2 cells, read-out: Inhibition

Row | SMILES | cytotoxicity at 70.5 h
1 | OC[C@@H]1[C@@H](c2ccccc2)CN2CCN(c3ccccn3)C[C@H]12 | -3.64%
2 | OC[C@@H]1[C@H]2CN(c3ccccn3)CCN2C[C@H]1c1ccccc1 | -1.78%
3 | O=S1(=O)N(c2ccccc2)C[C@H](O)[C@]12CCNC2 | -2.92%
4 | CN1CC[C@H](N(Cc2ccccc2)CC2CC2)C[C@H](O)C1 | 9.84%
5 | CN1C[C@H](O)[C@]2(CCN(C(=O)NCc3ccccc3)C2)S1(=O)=O | -8.64%
6 | O=S1(=O)[C@@H](c2ccccc2)[C@H](CO)CN1c1ccccc1 | -4.62%
7 | CC(C)N1C[C@@H](CO)[C@H](c2ccccc2)S1(=O)=O | -3.46%
8 | CCCC(O)CN1CCC(=O)N(CC2CC2)Cc2cc3c(cc21)OCO3 (stereo not drawn) | 25%
9 | CN1Cc2cc(F)ccc2N(CC(C)(C)O)CCC1=O | 8.74%
10 | O=C(Cc1ccccc1)N1CC(=O)N(Cc2ccco2)CC(O)C1 (stereo not drawn) | 0.111%
11 | Cc1ccc(C(=O)N2CC(=O)N(Cc3ccco3)CC(O)C2)cc1 (stereo not drawn) | -2.64%
12 | CC(C)CN1CC(O)CN(S(=O)(=O)c2ccc(F)cc2)CC1=O (stereo not drawn) | -9.29%
13 | CC(C)(C)C(=O)N1CC(=O)N(Cc2ccco2)CC(O)C1 (stereo not drawn) | -4.89%
14 | CC(C)CC(=O)N1CC(=O)N(Cc2ccco2)CC(O)C1 (stereo not drawn) | 8.54%
15 | CCCC1CN(CCOC)C(=O)c2cccnc2O1 (stereo not drawn) | -8.12%
16 | CCOC(=O)N1[C@@H](c2ccco2)[C@@H](C(=O)NC)C[C@]12CCCCNC2=O | 15.2%
17 | CC(C)(C)CC(=O)N1[C@@H](c2ccco2)[C@@H](CO)C[C@]12CCCCNC2=O | -5.67%
18 | CCOC(=O)CN1C(=O)CN(S(C)(=O)=O)CCC(OC)c2ccccc21 (stereo not drawn) | -8.31%
19 | CNC(=O)CN1C(=O)CN(C(=O)COC)CCC(OC)c2ccccc21 (stereo not drawn) | 15.1%
20 | OCC1N(Cc2ccc(F)cc2)[C@H]2CC[C@]1(O)CC2 (stereo partly drawn) | -7.04%
21 | O=C(c1ccco1)N1C(CO)[C@]2(O)CC[C@H]1CC2 (stereo partly drawn) | -3.21%
22 | O=C(Nc1ccccc1)N1C(CO)[C@]2(O)CC[C@H]1CC2 (stereo partly drawn) | 15%
23 | COCC1N(C(=O)c2ccco2)[C@H]2CC[C@]1(O)CC2 (stereo partly drawn) | -2.24%

Row | SMILES | cytotoxicity at 70.5 h
24 | COCC1N(C(=O)Nc2ccccc2)[C@H]2CC[C@]1(O)CC2 (stereo partly drawn) | -7.67%
25 | COCC1N(S(=O)(=O)c2cn(C)cn2)[C@H]2CC[C@]1(O)CC2 (stereo partly drawn) | -7.28%
26 | CCOC(=O)C1CC2(CCCCC2)N2CCC(=O)N12 (stereo not drawn) | -4.11%
27 | O[C@]12CC[C@H](CC1)N(Cc1ccc(F)cc1)C2CN1CCOCC1 (stereo partly drawn) | -7.54%
28 | O=S(=O)(c1ccccc1)N1C(CN2CCOCC2)[C@]2(O)CC[C@H]1CC2 (stereo partly drawn) | 16.5%
29 | O=C1CCNc2ncc(-c3ccc(Cl)cc3)cc2CN1C1CC1 | -8.11%
30 | CCOC(=O)[C@@H]1[C@@H](c2ccccc2)CN2CCN(C(C)=O)C[C@H]12 | -4.08%
31 | CCOC(=O)[C@@H]1[C@@H](c2ccccc2)CN2CCN(C(=O)C3CC3)C[C@H]12 | 16.5%
32 | CO[C@@H]1CN(C)S(=O)(=O)[C@@]12CCN(Cc1ccccc1)C2 | -7.27%
33 | CO[C@@H]1CN(c2ccccc2)S(=O)(=O)[C@@]12CCN(C)C2 | -7.99%
34 | COC(=O)N1CC[C@@]2(C1)[C@H](OC)CN(c1ccccc1)S2(=O)=O | -11.4%
35 | CO[C@@H]1CN(c2ccccc2)S(=O)(=O)[C@@]12CCN(S(C)(=O)=O)C2 | 15.4%
36 | COCC(O)CN1CCC(=O)N(Cc2ccccc2)Cc2ccccc21 (stereo not drawn) | -5.42%
37 | COCC(O)CN1CCC(=O)N(CC(=O)C(C)(C)C)Cc2ccccc21 (stereo not drawn) | -4.8%
38 | COCCN1CC(O)CN(C(=O)c2cccc(C(F)(F)F)c2)CC1=O (stereo not drawn) | -0.767%
39 | COc1ccc(CN2CC(O)CN(C(=O)c3ccccc3)CC2=O)cc1 (stereo not drawn) | 7.16%
40 | COc1ccc(CN2CC(O)CN(C(=O)C3CCC3)CC2=O)cc1 (stereo not drawn) | -0.603%
41 | Cc1ccc(C(=O)N2CC(=O)N(Cc3cccs3)CC(O)C2)cc1 (stereo not drawn) | -0.413%
42 | CN(CCO)Cc1nnc(C2CCN(C(=O)c3cc[nH]c3)CC2)n1C | -1.84%
43 | CSCCNc1ccc(C(=O)N(C)Cc2ccc3ccccc3n2)cn1 | -12.8%
44 | Cc1cccc(CN2CCCC(O)(CNCc3ncccc3C)C2=O)c1 (stereo not drawn) | -7.55%
45 | Cc1cc2nc(C(C)C)cc(NCc3ccncc3)n2n1 | -7.5%
46 | Cc1ccc(-c2nnc(CN3CCCCC3Cn3cncn3)o2)cc1 (stereo not drawn) | -12.6%

Row | SMILES | cytotoxicity at 70.5 h
47 | Cc1ccc(C)c(CS(=O)(=O)CC(=O)NCCCOC(C)C)c1 | -4.92%
48 | Cc1ccc(CS(=O)(=O)CC(=O)NCCCOC(C)C)cc1 | -10.8%
49 | CC(C)OCCCNC(=O)CS(=O)(=O)Cc1ccc(Cl)cc1 | 13%
50 | CC(Cn1cccn1)NC(=O)Nc1ccccn1 (stereo not drawn) | -8.38%
51 | CC(NC(=O)NCc1ccoc1)c1ccc2c(c1)CC(=O)N2 (stereo not drawn) | -4.73%
52 | O=C(CS(=O)(=O)Cc1ccccc1)NC1CCCCNC1=O (stereo not drawn) | 12.6%
53 | Cc1csc(CNC(=O)NC(C)c2ccc3c(c2)CCC(=O)N3)n1 (stereo not drawn) | -5.74%
54 | COc1ccccc1CC(=O)NS(=O)(=O)c1ccc(NC(C)=O)cc1 | -6.22%
55 | COC(=O)C(NC(=O)CC(C)C)c1cc(F)ccc1F (stereo not drawn) | -1.44%
56 | c1coc(-c2nnc(CN3CCCC3Cn3cncn3)o2)c1 (stereo not drawn) | -1.88%
57 | COc1ccc(-c2nnc(CN3CCCC3Cn3cncn3)o2)cc1 (stereo not drawn) | 15.3%
58 | CCCC(=O)NC(C(=O)OC)c1cc(F)ccc1F (stereo not drawn) | -3.96%
59 | CNc1cc2c(nn1)CCN(C(=O)c1cccc3c1OCCO3)C2 | -0.154%
60 | c1cnnc(NCC2CN(CC3CCOCC3)CCO2)c1 (stereo not drawn) | -5.6%
61 | O=C(CN1CCOC(CNc2cccnn2)C1)N1CCCCC1 (stereo not drawn) | -6.36%
62 | OC1(CN2CCOC(CNc3cccnn3)C2)CCCCC1 (stereo not drawn) | 0.208%
63 | O=C(c1cccn1Cc1cccs1)N1CCC(C(=O)N2CCCC2)CC1 | -5.45%
64 | NC(=O)CC1CCN(C(=O)c2cccn2Cc2cccs2)CC1 | 3.87%
65 | O=C(c1cccn1Cc1cccs1)N1CCSCC1 | 25%
66 | Cn1c(CN2CCOC(CNc3cccnn3)C2)nnc1C1CC1 (stereo not drawn) | -2.31%
67 | COc1ccccc1CC(=O)NS(=O)(=O)c1ccc(C#N)cc1 | 4.13%
68 | COc1ccc(Cl)cc1CC(=O)NS(=O)(=O)c1ccc(C(N)=O)cc1 | -3.68%
69 | CCN(CC)S(=O)(=O)c1cccc(C(=O)N(C)Cc2ccsc2)c1 | 14.5%

Row | SMILES | cytotoxicity at 70.5 h
70 | CCOCC(=O)N1CSCC1C(=O)N(C)Cc1ccco1 (stereo not drawn) | 15.7%
71 | CN(Cc1cnn(C)c1)C(=O)CN1CCCC(Cn2cncn2)C1 (stereo not drawn) | 48%
72 | CCc1nc2n(n1)CC(NCc1cc(OC)c3c(c1)OCCO3)CC2 (stereo not drawn) | -5.82%
73 | Cc1cccc(C(=O)N2CCCCC2c2nc(C)cs2)n1 (stereo not drawn) | -12.3%
74 | CC(=O)N1CCCN(C(=O)c2cnn(C(C)(C)C)c2C)CC1 | -10.1%
75 | CN(Cc1ccsc1)C(=O)c1cccc(S(=O)(=O)NCC2CCCO2)c1 (stereo not drawn) | 15.1%
76 | CN(Cc1ccsc1)C(=O)c1ccc(S(=O)(=O)NC(C)(C)C)cc1 | -7.83%
77 | CCc1c(C(=O)N2CCNC(=O)C2)cnn1C(C)(C)C | -6.91%
78 | Cc1nnc(NC(=O)NCc2ccc(OC(C)C)nc2)s1 | 20.6%
79 | Cc1nnc(NC(=O)NCc2ccoc2)s1 | -2.74%
80 | OCCN1CCN(Cc2coc(-c3cccc(Cl)c3)n2)CC1 | 24.5%
81 | CCOCCCn1c(NC(=O)c2cc(C)on2)nc2ccccc21 | 9.94%
82 | Cn1cnnc1C1CCCN(C(=O)NCCCn2cccn2)C1 (stereo not drawn) | -2.61%
83 | CCc1nnc2n1CCN(CCC(=O)Nc1sccc1C#N)C2 | -3.22%
84 | CC(C)c1nnc2n1CCN(CCC(=O)Nc1sccc1C#N)C2 | -1.15%
85 | OCCN1CCN(Cc2coc(-c3ccccc3)n2)CC1 | -4.94%
86 | CN(Cc1ccco1)C(=O)CN1CCOC(Cn2cncn2)C1 (stereo not drawn) | -3.13%
87 | Cc1cnc(C(=O)N2CCCCC2c2nc(C)cs2)cn1 (stereo not drawn) | -0.288%
88 | Cc1csc(CNC(=O)N2CCCC(c3nncn3C)C2)n1 (stereo not drawn) | -4.57%
89 | CCc1c(C(=O)N2CCN(c3cnccn3)CC2)cnn1C(C)(C)C | 20.7%
90 | CC(C(=O)NCCCN1CCOCC1)n1cncn1 (stereo not drawn) | 6.37%
91 | Cc1cnn(C2CN(CC(=O)NCCCc3ccccc3)C2)c1 | 24.2%
92 | Cc1nc(CN(C)C2CCCN(Cc3noc(C4CC4)n3)C2)oc1C (stereo not drawn) | 14.4%

Row | SMILES | cytotoxicity at 70.5 h
93 | Cc1cc(CN(C)C2CCCN(Cc3noc(C4CC4)n3)C2)on1 (stereo not drawn) | -9.71%
94 | CC(C(=O)NCCN1CCCCC1)n1cncn1 (stereo not drawn) | -12.5%
95 | Cn1cnc2c1CCN(Cc1csc(Cc3ccccc3)n1)C2 | -9.86%
96 | CC(C)c1cc(NC(=O)CN2CCCC2Cn2cncn2)on1 (stereo not drawn) | -9.97%
97 | CCc1ncncc1C(=O)N1CCCN(Cc2ccc(C#N)cc2)CC1 | -10.9%
98 | Cc1noc(CN(C)C2CCCN(Cc3noc(C4CC4)n3)C2)n1 (stereo not drawn) | -10.7%
99 | O=C(Cc1cccc(F)c1)NCCNc1ncccn1 | -4.32%
100 | CNS(=O)(=O)c1ccc(C)c(C(=O)NCCNc2ncccn2)c1 | -14.9%
101 | CC(C(=O)NCCCN1CCN(c2ccccc2)CC1)n1cncn1 (stereo not drawn) | -15.9%
102 | CN(Cc1cccc(F)c1)Cc1nc2c(cnn2C)c(=O)[nH]1 | 5.31%
103 | CCC(C)NC(=O)CCc1ccc(OCC(F)(F)F)c(OC)c1 (stereo not drawn) | -14.7%
104 | COc1cc(CCC(=O)NC2CCN(C)CC2)ccc1OCC(F)(F)F | -7.75%
105 | CCC(C)(C)NC(=O)CN1C=Nc2ccccc2S1(=O)=O | -5.89%
106 | CC(C)CCC(C)NC(=O)CN1C=Nc2ccccc2S1(=O)=O (stereo not drawn) | -8.83%
107 | COc1cc(CCC(=O)NC(C)(C)C)ccc1OCC(F)(F)F | -9.72%
108 | CC(C(=O)NCCN1CCOCC1)n1cncn1 (stereo not drawn) | -11.7%
109 | Cc1cc(NC(=O)CN2CCCCC2Cn2nc(C)nc2C)on1 (stereo not drawn) | -8.71%
110 | Cc1cnn(C2CN(CC(=O)NCCc3cccs3)C2)c1 | -12.3%
111 | Cn1c(C2CC2)nc2c1CCN(Cc1nc(Cc3ccccc3)no1)C2 | -12.9%
112 | COc1cc(C(C)=O)ccc1OCCNCc1ccco1 | -3.22%
113 | CNC(C(=O)OC)c1cc(F)ccc1F (stereo not drawn) | -3.37%
